Measurements from ChEMBL document CHEMBL5137036, “Design and synthesis of highly TRAIL expression HDAC inhibitors based on ONC201 to promote apoptosis of colorectal cancer” (Eur J Med Chem, 2022).
Calls of active or inactive are those of the source. The calls are words filed in the database; no cut-off is given here.

Legend:
HCT-116 [1] = test: Upregulation of TRAIL mRNA expression in human HCT-116 cells at 0.25 uM incubated for 12 hrs by RT-PCR analysis; type: functional, cell-based
Histone deacetylase 1 = Histone deacetylase 1 (Homo sapiens, UniProt Q13547); test: Inhibition of human HDAC1 using RHKKAc fluorogenic peptide as substrate preincubated for 10 mins followed by substrate addition by fluorescence based analysis
Chain of Histone deacetylase 1 (Q13547 whole entry): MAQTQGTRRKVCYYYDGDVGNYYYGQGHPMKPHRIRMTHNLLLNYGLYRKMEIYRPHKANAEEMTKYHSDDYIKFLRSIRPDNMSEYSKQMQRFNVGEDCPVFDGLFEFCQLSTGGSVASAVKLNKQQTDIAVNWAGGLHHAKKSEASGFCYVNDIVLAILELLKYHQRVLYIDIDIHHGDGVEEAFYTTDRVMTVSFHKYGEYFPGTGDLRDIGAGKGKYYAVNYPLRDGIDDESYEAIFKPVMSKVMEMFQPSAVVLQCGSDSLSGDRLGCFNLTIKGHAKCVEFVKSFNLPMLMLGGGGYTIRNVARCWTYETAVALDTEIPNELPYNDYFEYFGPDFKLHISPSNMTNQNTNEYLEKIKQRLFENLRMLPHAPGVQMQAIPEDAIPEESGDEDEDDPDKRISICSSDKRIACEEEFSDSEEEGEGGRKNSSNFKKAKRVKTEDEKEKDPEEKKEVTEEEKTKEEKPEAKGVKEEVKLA

HepG2 = test: Antiproliferative activity against human HepG2 cells assessed as inhibition of cell growth incubated for 72 hrs by luminescence based analysis; type: functional; settings: HepG2, 72 h
HCT-116 [2] = test: Antiproliferative activity against human HCT-116 cells assessed as inhibition of cell growth incubated for 72 hrs by luminescence based analysis; type: functional; settings: HCT-116, 72 h
HCT-116 [3] = test: Induction of apoptosis in human HCT-116 cells assessed as increase in caspase-8 protein expression incubated for 12 hrs by Western blot analysis; type: functional, cell-based; settings: dose 0.125-0.5 µM, DDE = dose-dependent effect
Histone deacetylase 8 = target: T1, Histone deacetylase 8 (Homo sapiens, UniProt Q9BY41); test: Inhibition of human HDAC8 using RHKAcKAc as fluorogenic substrate preincubated for 10 mins followed by substrate addition by fluorescence based analysis
T1 sequence (Q9BY41 whole entry): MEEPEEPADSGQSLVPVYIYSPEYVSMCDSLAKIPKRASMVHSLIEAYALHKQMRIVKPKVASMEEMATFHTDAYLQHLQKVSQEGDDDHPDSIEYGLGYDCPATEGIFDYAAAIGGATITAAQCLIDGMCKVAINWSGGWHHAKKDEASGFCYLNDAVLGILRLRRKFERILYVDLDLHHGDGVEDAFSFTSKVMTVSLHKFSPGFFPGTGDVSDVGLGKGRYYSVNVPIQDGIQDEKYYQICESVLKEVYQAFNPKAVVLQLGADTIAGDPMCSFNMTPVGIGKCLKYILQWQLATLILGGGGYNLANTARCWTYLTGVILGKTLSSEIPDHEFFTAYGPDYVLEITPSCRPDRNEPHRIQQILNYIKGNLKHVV

HCT-116 [4] = test: Induction of apoptosis in human HCT-116 cells assessed as early apoptotic cells at 0.125 uM incubated for 24 hrs by AnnexinV-FITC/PI staining based flow cytometry (reference value: 0.93 %); type: functional
HCT-116 [5] = test: Induction of apoptosis in human HCT-116 cells assessed as late apoptotic cells at 0.125 uM incubated for 24 hrs by AnnexinV-FITC/PI staining based flow cytometry (reference value: 0.82 %); type: functional
HCT-116 [6] = test: Induction of apoptosis in human HCT-116 cells assessed as viable cells at 0.25 uM incubated for 24 hrs by AnnexinV-FITC/PI staining based flow cytometry (reference value: 93.64%); type: functional; settings: read-out: Activity
HCT-116 [7] = test: Induction of apoptosis in human HCT-116 cells assessed as viable cells at 0.5 uM incubated for 24 hrs by AnnexinV-FITC/PI staining based flow cytometry (reference value: 93.64%); type: functional; settings: read-out: Activity
HCT-116 [8] = test: Induction of apoptosis in human HCT-116 cells assessed as early apoptotic cells at 0.5 uM incubated for 24 hrs by AnnexinV-FITC/PI staining based flow cytometry (reference value: 0.93 %); type: functional
HCT-116 [9] = test: Induction of apoptosis in human HCT-116 cells assessed as dead cells at 0.5 uM incubated for 24 hrs by AnnexinV-FITC/PI staining based flow cytometry (reference value: 4.62 %); type: functional
[10] = Toxicity in BALB/c mouse xenografted with human HCT-116 cells assessed as reduction in body weight at 12.5 to 25 mg/kg, po qd administered for 3 weeks; type: organism-based; settings: in vivo, 504 h, dose 12.5-25 mg/kg
[11] = Toxicity in BALB/c mouse xenografted with human HCT-116 cells assessed as morphological changes in lung at 12.5 to 25 mg/kg, po qd administered for 21 days by H & E staining based microscopic analysis; type: organism-based; settings: in vivo, 504 h, dose 12.5-25 mg/kg, time 21 day
HCT-116 [12] = test: Effect on DR5 protein expression in human HCT-116 cells incubated for 12 hrs by Western blot analysis; type: functional, cell-based; settings: dose 0.125-0.5 µM, DDE = dose-dependent effect
HCT-116 [13] = test: Effect on TRAIL protein expression in human HCT-116 cells incubated for 12 hrs by Western blot analysis; type: functional, cell-based; settings: dose 0.125-0.5 µM, DDE = dose-dependent effect

Question: For COc1ccccc1CN1C(=O)C2=C(CCN(Cc3ccc(C(=O)Nc4ccccc4N)cc3)C2)N2CCN=C12, which Activity (HCT-116 [1]) is on record?
Answer: Active

Question: What about the IC50 (Histone deacetylase 1) of the same compound?
Answer: 156 nM

Question: What about the IC50 (HepG2) of the same compound?
Answer: 2670 nM

Question: What about the IC50 (HCT-116 [2]) of the same compound?
Answer: 653 nM

Question: What about the Activity (HCT-116 [3]) of the same compound?
Answer: Dde

Question: And the IC50 (Histone deacetylase 8)?
Answer: > 10000 nM

Question: What about the Activity (HCT-116 [4]) of the same compound?
Answer: 0.87%

Question: And the Activity (HCT-116 [5])?
Answer: 1.35%

Question: And the viability at 0.25 µM (HCT-116 [6])?
Answer: 93%

Question: And the viability at 0.5 µM (HCT-116 [7])?
Answer: 87.2%

Question: And the Activity (HCT-116 [8])?
Answer: 1.22%

Question: And the Activity (HCT-116 [9])?
Answer: 9.59%

Question: And the Activity [10]?
Answer: Non-Toxic

Question: What about the Activity [11] of the same compound?
Answer: Non-Toxic

Question: What about the Activity (HCT-116 [12]) of the same compound?
Answer: Dde

Question: And the Activity (HCT-116 [13])?
Answer: Dde
